Results published in ChEMBL document CHEMBL1142478, “Small molecule modulators of toll-like receptors” (J Med Chem, 2008).
Activity calls are given as the source filed them. No cut-off for these calls is given here. Where a SMILES comes first, the peptide text is derived from it. The star is where a group is joined. X1 = CCCCCCCCCCCCCC(=O)N[C@@H](C*)C(=O)NCCCCCCCC; Myristoyl = CCCCCCCCCCCCCC(=O)*

Experiments:
[1] = target: T1, Toll-like receptor 7 (Homo sapiens, UniProt Q9NYK1); test: (§1) Agonist activity at human TLR7 by luciferase reporter gene assay; type: functional
T1 sequence (Q9NYK1 whole entry): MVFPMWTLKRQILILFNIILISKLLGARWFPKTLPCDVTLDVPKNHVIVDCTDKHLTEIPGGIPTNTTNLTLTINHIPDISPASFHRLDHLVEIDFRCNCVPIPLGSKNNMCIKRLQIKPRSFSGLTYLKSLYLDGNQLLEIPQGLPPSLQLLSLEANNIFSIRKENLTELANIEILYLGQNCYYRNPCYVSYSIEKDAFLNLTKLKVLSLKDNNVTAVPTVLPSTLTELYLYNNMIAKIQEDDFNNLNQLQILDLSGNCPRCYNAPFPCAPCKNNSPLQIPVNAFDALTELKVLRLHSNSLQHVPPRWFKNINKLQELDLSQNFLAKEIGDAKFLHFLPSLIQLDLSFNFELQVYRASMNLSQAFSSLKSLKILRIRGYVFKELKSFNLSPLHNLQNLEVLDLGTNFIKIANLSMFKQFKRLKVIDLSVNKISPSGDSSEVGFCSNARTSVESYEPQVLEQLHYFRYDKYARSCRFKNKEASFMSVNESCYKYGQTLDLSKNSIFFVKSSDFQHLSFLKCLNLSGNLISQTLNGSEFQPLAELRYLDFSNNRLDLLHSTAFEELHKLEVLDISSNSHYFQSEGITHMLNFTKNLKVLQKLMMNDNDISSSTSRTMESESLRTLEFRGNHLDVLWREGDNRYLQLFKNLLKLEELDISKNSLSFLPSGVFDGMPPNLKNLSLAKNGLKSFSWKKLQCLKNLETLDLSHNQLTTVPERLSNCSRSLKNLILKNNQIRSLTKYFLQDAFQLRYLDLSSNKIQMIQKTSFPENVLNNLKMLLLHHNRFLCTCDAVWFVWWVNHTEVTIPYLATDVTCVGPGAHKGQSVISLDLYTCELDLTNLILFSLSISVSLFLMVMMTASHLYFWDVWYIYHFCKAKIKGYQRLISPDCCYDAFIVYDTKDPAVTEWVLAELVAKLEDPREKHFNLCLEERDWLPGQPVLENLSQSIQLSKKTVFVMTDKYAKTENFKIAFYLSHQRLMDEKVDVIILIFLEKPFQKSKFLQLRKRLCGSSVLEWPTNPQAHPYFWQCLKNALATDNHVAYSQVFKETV

[2] = target: T2, Toll-like receptor 7 (Homo sapiens) (UniProt Q9NYK1); test: as §1; type: functional
T2 sequence (whole entry): T1 sequence (Q9NYK1 whole entry)

[3] = target: Toll-like receptor 4 (Mus musculus) (UniProt Q9QUK6); test: Inhibition of mouse TLR4-mediated cytokine production in mouse macrophages
[4] = target: T3, Toll-like receptor 9 (Homo sapiens, UniProt Q9NR96); test: Antagonist activity at human TLR9 expressed in HEK293 cells assessed as blockade of CpG oligonucleotide-induced immune response by NF-kappaB luciferase reporter gene assay; type: functional, cell-based
T3 sequence (Q9NR96 whole entry): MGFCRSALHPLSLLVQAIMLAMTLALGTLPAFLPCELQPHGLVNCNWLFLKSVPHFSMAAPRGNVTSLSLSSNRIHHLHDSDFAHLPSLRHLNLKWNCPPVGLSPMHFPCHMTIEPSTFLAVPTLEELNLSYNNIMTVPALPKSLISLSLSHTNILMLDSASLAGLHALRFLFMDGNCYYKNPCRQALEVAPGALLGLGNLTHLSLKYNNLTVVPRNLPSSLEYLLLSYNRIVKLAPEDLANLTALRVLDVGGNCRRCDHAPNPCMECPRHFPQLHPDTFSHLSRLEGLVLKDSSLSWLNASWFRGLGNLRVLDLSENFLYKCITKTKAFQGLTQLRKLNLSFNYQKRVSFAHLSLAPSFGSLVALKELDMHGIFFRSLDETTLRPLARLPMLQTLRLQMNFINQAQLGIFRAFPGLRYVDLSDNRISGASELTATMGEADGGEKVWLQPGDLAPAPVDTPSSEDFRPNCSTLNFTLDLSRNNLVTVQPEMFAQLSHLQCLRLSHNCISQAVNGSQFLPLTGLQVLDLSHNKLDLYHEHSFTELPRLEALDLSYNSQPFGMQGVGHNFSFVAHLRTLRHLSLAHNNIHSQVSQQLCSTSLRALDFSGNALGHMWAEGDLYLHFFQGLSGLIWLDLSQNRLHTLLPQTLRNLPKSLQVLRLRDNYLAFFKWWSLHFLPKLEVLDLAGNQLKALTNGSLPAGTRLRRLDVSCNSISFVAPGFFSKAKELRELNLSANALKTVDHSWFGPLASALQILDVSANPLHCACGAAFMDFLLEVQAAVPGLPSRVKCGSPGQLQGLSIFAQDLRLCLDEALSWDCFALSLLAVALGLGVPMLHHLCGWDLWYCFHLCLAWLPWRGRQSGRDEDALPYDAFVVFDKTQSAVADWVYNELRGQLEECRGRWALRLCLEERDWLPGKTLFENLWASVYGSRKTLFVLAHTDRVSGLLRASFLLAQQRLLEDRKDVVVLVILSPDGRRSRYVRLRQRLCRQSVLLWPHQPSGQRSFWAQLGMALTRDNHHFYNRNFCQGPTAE

[5] = target: T1, Toll-like receptor 7; test: Agonist activity at TLR7 in human PBMC cells assessed as stimulation of interferon release; type: functional, cell-based
[6] = target: T4, Toll-like receptor 4 (Homo sapiens, UniProt O00206); test: Antagonist activity at human TLR4 expressed in HE293 cells by ELAM1-luciferase reporter gene assay; type: functional, cell-based, HEK293
T4 sequence (O00206 whole entry): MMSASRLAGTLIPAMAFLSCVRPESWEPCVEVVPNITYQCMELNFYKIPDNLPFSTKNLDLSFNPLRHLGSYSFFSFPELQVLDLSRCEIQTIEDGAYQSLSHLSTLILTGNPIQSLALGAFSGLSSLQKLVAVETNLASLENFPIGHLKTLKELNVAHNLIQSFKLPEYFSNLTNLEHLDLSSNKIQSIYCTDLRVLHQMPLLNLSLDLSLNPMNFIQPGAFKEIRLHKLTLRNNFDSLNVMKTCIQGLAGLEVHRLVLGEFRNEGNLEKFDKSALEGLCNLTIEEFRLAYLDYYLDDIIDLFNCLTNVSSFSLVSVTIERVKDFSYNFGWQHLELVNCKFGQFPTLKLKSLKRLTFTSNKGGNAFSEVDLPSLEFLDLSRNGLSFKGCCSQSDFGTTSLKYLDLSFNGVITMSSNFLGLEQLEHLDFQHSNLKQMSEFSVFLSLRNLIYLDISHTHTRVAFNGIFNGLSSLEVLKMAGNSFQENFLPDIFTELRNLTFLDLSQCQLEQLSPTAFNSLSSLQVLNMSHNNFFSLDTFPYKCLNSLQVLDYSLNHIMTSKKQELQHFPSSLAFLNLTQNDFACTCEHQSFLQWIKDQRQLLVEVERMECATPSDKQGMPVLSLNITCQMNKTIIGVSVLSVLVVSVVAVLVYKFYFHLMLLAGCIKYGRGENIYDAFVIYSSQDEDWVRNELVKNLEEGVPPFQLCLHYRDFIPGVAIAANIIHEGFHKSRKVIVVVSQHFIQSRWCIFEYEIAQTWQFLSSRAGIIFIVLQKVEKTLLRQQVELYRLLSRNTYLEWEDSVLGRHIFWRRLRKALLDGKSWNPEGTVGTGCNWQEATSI

[7] = target: T4, Toll-like receptor 4; test: Antagonist activity at TLR4 in human PBMC cells assessed as suppression of LPS-induced cytokine upregulation; type: functional, cell-based
[8] = target: T4, Toll-like receptor 4; test: Antagonist activity at TLR4 in human HL60 cells assessed as inhibition of LPS-induced cytokine production; type: functional, cell-based, HL-60
[9] = target: T4, Toll-like receptor 4; test: Antagonist activity at human TLR4 assessed as inhibition of LPS-induced cytokine production in HL-60 cells
[10] = target: T5, Toll-like receptor 2 (Homo sapiens, UniProt O60603); test: Antagonist activity at human TLR2 expressed in HE293 cells co-transfected with pELAM by luciferase reporter gene assay; type: functional, cell-based, HEK293
T5 sequence (O60603 whole entry): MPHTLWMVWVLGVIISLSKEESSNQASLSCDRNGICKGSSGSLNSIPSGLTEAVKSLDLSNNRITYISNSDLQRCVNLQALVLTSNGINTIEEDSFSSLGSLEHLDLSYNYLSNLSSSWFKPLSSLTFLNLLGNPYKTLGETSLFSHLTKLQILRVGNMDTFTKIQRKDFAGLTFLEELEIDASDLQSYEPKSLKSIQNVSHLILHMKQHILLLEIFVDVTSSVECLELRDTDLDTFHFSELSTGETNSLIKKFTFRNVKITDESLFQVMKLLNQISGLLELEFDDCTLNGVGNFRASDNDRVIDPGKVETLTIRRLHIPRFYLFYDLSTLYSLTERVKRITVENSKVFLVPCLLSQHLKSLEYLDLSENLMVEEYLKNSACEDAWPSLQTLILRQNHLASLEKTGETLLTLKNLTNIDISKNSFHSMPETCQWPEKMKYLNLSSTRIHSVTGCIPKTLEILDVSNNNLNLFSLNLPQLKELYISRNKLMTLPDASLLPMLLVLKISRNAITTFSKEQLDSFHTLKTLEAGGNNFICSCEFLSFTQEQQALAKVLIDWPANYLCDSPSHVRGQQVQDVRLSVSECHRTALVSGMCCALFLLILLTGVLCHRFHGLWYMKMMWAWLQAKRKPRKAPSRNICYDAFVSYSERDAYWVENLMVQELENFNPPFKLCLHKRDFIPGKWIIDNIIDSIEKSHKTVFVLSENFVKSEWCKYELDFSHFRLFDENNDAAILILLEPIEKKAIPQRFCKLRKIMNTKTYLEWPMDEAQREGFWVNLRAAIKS

[11] = organism: Homo sapiens; test: Selectivity for human TLR2 over human TLR4
[12] = target: T6, Toll-like receptor 8 (Homo sapiens, UniProt Q9NR97); test: Agonist activity at human TLR8 expressed in HEK cells by NF-kappaB luciferase reporter gene assay; type: functional, cell-based, HEK293
T6 sequence (Q9NR97 whole entry): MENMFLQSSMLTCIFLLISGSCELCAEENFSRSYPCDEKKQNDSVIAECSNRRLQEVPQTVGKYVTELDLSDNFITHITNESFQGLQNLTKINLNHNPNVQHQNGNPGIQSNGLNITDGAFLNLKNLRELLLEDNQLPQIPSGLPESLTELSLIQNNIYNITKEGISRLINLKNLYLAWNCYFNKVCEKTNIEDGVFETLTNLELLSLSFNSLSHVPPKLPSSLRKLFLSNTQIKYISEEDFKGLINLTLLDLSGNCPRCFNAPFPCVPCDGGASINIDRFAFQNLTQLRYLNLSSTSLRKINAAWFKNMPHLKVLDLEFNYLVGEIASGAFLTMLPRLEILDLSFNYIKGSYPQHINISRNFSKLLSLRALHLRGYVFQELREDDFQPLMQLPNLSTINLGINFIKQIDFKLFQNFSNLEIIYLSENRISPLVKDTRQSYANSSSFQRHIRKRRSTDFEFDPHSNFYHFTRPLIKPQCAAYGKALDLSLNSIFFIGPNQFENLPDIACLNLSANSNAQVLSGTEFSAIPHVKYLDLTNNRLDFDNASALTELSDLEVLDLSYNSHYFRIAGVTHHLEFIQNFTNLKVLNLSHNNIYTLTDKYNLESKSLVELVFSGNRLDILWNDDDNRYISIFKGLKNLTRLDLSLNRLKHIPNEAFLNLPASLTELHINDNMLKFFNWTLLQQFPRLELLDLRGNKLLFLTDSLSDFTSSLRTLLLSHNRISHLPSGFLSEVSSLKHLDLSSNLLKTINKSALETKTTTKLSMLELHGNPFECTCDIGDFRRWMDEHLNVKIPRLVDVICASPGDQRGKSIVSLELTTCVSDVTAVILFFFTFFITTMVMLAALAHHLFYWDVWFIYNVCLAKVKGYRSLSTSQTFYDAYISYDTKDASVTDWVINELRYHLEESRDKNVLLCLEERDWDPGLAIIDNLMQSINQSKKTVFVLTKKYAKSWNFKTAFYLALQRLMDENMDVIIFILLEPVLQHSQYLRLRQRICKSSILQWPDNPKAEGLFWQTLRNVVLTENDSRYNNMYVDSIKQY

[13] = target: T6, Toll-like receptor 8; test: Agonist activity at TLR8 in human PBMC cells assessed as TNFalpha level by ELISA; type: functional, cell-based
[14] = target: T5, Toll-like receptor 2; test: Inhibition of TLR2-mediated IL8 secretion in human THP1 cells; type: cell-based, THP-1

With COCCOc1nc(N)c2nc(N)n(Cc3ccccc3)c2n1 the EC50 [1] was > 10000 nM.
For CCN(CC)c1nc2c(N)nc(OCCOC)nc2n1Cc1ccccc1, the Activity [2] was “inactive”.
CCOC(=O)C1=CCCCC1S(=O)(=O)Nc1ccc(F)cc1Cl (centres undefined) was tested, and the IC50 [3] was 3.2 nM.
With CN(C)CCNc1nc(-c2ccc(N3CCN(C)CC3)cc2)nc2ccccc12 the IC50 [4] was 3 nM.
For COCCOc1nc(N)c2nc(S)n(Cc3cccc(CP(C)(=O)O)c3)c2n1, the EC50 [1] was 10 nM and the EC50 [5] was 10 nM.
In the case of CCOC(=O)c1ccccc1S(=O)(=O)Nc1ccc(F)cc1Cl, the IC50 [3] is reported as > 10000 nM.
Nc1ccccc1Oc1ccc2c(N)nsc2c1 gave an IC50 [6] of 7 µM and an IC50 [7] of 3 µM.
Nc1nc(NCc2ccccc2)nc2c1[nH]c(=O)n2Cc1cccc(CP(=O)(O)O)c1 showed an EC50 [1] of 10 nM and an EC50 [5] of 10 nM.
Compound CCNc1nc2c(N)nc(OCCOC)nc2n1Cc1ccccc1 has an EC50 [1] of 4400 nM.
COCCOc1nc(N)c2nc(NN)n(Cc3ccccc3)c2n1 was tested, and the EC50 [1] was 790 nM.
Compound Cc1ccc(Cn2c(=O)[nH]c3c(N)nc(-c4nccs4)cc32)cn1 has an EC50 [1] of 100 nM.
For CCCCCC/C=C\CCCCCCCCCC(=O)N[C@H]1[C@H](OC[C@H]2O[C@H](OP(=O)(O)O)[C@H](NC(=O)CC(=O)CCCCCCCCCCC)[C@@H](OCCCCCCCCCC)[C@@H]2O)O[C@H](COC)[C@@H](OP(=O)(O)O)[C@@H]1OCC[C@@H](CCCCCCC)OC [ERITORAN TETRASODIUM], the IC50 [8] was 1.5 nM and the IC50 [9] was 1.5 nM.
In the case of CCOC(=O)C1=CCCC1S(=O)(=O)Nc1ccc(F)cc1Cl (centres undefined), the IC50 [3] is reported as 110 nM.
In the case of CCCCCCCCCCCCCCCCCCCC(=O)N[C@@H](COP(=O)(O)OCCNC(=O)[C@@H](NC(=O)Cc1c[nH]c2ccc(OCc3ccccc3)cc12)[C@@H](C)CC)C(=O)NCCC(O)CCCCCCCCCCCCC (some centres undefined), the IC50 [10] is reported as 240 nM and the Selectivity ratio [11] is reported as > 25.
COCCOc1nc(N)c2[nH]c(=O)n(CCCN(Cc3ccc(CC(=O)OC)cc3)C(=O)CCC(=O)OC(C)(C)C)c2n1 was tested, and the EC50 [1] was < 20 nM.
In the case of CCCCCCCCCCCCCCCCCCCC(=O)N[C@@H](COP(=O)(O)OCCNC(=O)[C@@H](NC(=O)Cc1c[nH]c2ccccc12)[C@@H](C)CC)C(=O)NCCC(O)CCCCCCCCCCCCC (some centres undefined), the IC50 [10] is reported as 460 nM and the Selectivity ratio [11] is reported as > 25.
CCOC(=O)C1=CCCCCC1S(=O)(=O)Nc1ccc(F)cc1Cl (centres undefined) gave an IC50 [3] of 240 nM.
With CCOC(=O)N1CC(N)=Nc2ccccc2C1 the EC50 [12] was < 100 µM and the EC50 [13] was < 100 µM.
Work on CCOC(=O)C1=CCCCC1S(=O)(=O)Nc1ccc(Cl)cc1F (centres undefined) yielded an IC50 [3] of 160 nM.
Compound CCCCCCCCCCCCCCCC(=O)N[C@@H](COP(=O)(O)OCCNC(=O)[C@@H](NC(=O)Cc1c[nH]c2ccc(-c3ccccc3)cc12)[C@@H](C)CC)C(=O)NCCCOC(=O)CCCCCCCCCCC has an IC50 [10] of 230 nM.
With COCCOc1nc(N)c2[nH]c(=O)n(CCCN(Cc3ccc(CC(=O)OC)cc3)C(=O)CN3CCN(C)CC3)c2n1 the EC50 [1] was < 20 nM.
In the case of CCN(CC)C(=O)N1CC(N)=Nc2ccccc2C1, the EC50 [12] is reported as < 100 µM and the EC50 [13] is reported as < 100 µM.
CCOC(=O)C1=CCCCC1S(=O)(=O)NC1=NCCS1 (centres undefined) was tested, and the IC50 [3] was > 10000 nM.
Compound CCCCCCCCCCCCCC(=O)N[C@@H](CSC[C@H](NC(=O)CCCCCCCCCCCCC)C(=O)N[C@@H](CO)C(=O)N[C@@H](CCCCN)C(=O)N[C@@H](CCCCN)C(=O)N[C@@H](CCCCN)C(=O)N[C@@H](CCCCN)C(N)=O)C(=O)NCCCCCCCC (Myristoyl-C(X1)SKKKK-NH2) has an IC50 [14] of 5 µM.
Work on COCCOc1nc(N)c2nc(NCCCO)n(Cc3ccccc3)c2n1 yielded an EC50 [1] of 3200 nM.
CCCCCCCCCCCCCC(=O)N[C@@H](COP(=O)(O)OCCNC(=O)[C@@H](NC(=O)Cc1ccc(O)cc1)[C@@H](C)C(=O)O)C(=O)NCCC(CCCCCCC)OC(=O)CCCCCCCCCCC (some centres undefined) gave an IC50 [10] of 900 nM.
